From the supplement of paper PMC6965134
± gives the standard deviation of the averaged measurements.

Assay: TIMS collisional cross section (CCS, N2) of the lipid ion; higher = larger ion cross section
Conditions: ionization mode: positive, one isomer drawn

## CC(C)(O)CCC(=O)[C@](C)(O)[C@H]1[C@H](O)C[C@@]2(C)[C@@H]3CC=C4[C@@H](C[C@@H](O)[C@@H](O)C4(C)C)[C@]3(C)C(=O)C[C@]12C [Cucurbitacin P] (ion (formula + adduct): [C30H48O7+H] 1+)
Sample type: Liver
  TIMS collisional cross section: 231.3 Å²

## CCCCC/C=C\C/C=C\CCCCCCCCCCCC(=O)OC[C@@H](COC(=O)CCCCCCCCCCCCCCCCC)OC(=O)CCCCCCCCCCCCCCCCCCCCC [TG 18:0_22:0_22:2] (ion (formula + adduct): [C65H122O6+NH4] 1+)
Sample type: plasma
  TIMS collisional cross section: 351 Å²

## CCCCCCCCC/C=C\CCCCCCCC(=O)O[C@H](CO/C=C\CCCCCCCCCCCCCC)COP(=O)(O)OCCN [PE P- 16:0@_19:1] (ion (formula + adduct): [C40H78NO7P+H] 1+)
Sample type: HeLa
  TIMS collisional cross section: 277.5 Å²

## CCCCCCCC/C=C\CCCCCCCCCC(=O)OC[C@@H](COC(=O)CCCCCCCCCCCCCCC)OC(=O)CCCCCCCCCCCCCCCCC [TG 16:0_18:0_20:1] (ion (formula + adduct): [C57H108O6+NH4] 1+)
Sample type: HeLa
  TIMS collisional cross section: 330.3 Å²

## CCCCC/C=C\C/C=C\C/C=C\C/C=C\C/C=C\CCC(=O)OC[C@@H](O)COP(=O)([O-])OCC[N+](C)(C)C [LPC 22:5] (ion (formula + adduct): [C30H52NO7P+H] 1+)
Sample type: HeLa
  TIMS collisional cross section: 232.9 Å²
Sample type: plasma
  TIMS collisional cross section: 233.2 Å²

## CC/C=C\C/C=C\C/C=C\C/C=C\C/C=C\C/C=C\CCC(=O)O[C@H](COC(=O)CCCCCCC/C=C\CCCCCC)COP(=O)([O-])OCC[N+](C)(C)C [PC 16:1_22:6] (ion (formula + adduct): [C46H78NO8P+H] 1+)
Sample type: Liver
  TIMS collisional cross section: 288.5 Å²

## CCCCCC/C=C\CCCCCCCC(=O)OC[C@@H](COC(=O)CCCCCCCCCCC)OC(=O)CCCCCCCCCCC [TG 12:0_12:0_16:1] (ion (formula + adduct): [C43H80O6+NH4] 1+)
Sample type: Liver
  TIMS collisional cross section: 284.2 Å²
Sample type: plasma
  TIMS collisional cross section: 284.1 Å²

## CCCCC/C=C\C/C=C\C/C=C\C/C=C\CCCCCC(=O)OC[C@@H](O)COP(=O)([O-])OCC[N+](C)(C)C [LPC 22:4] (ion (formula + adduct): [C30H54NO7P+H] 1+)
Sample type: plasma
  TIMS collisional cross section: 237.55 ± 1.2 Å²

## CC/C=C\C/C=C\C/C=C\CCCCCCCC(=O)OC[C@@H](COC(=O)CCCCCCC/C=C\CCCCCCC)OC(=O)CCCCCCC/C=C\C/C=C\CCCCC [TG 17:1_18:2_18:3] (ion (formula + adduct): [C56H96O6+NH4] 1+)
Sample type: plasma
  TIMS collisional cross section: 317.2 Å²

## C(OC(=O)CCCCCCC/C=C\C/C=C\CCCCC)[C@]([H])(OC(CCCCCCC/C=C\C/C=C\CCCCC)=O)COC(CCCCCCC/C=C\C/C=C\CCCCC)=O [TG 18:2_18:2_18:2] (ion (formula + adduct): [C57H98O6+NH4] 1+)
Sample type: Liver
  TIMS collisional cross section: 321.8 Å²

## CC/C=C\C/C=C\C/C=C\C/C=C\C/C=C\C/C=C\CCC(=O)OC[C@H](COP(=O)(O)OCCN)OC(=O)CCCCCCC/C=C\CCCCCCCC [PE 22:6_18:1] (ion (formula + adduct): [C45H76NO8P+H] 1+)
Sample type: Liver
  TIMS collisional cross section: 281.4 Å²

## CCCCCCCCCCCCCCCCCCCC(=O)OC[C@@H](O)COP(=O)([O-])OCC[N+](C)(C)C [LPC 20:0_0:0] (ion (formula + adduct): [C28H58NO7P+H] 1+)
Sample type: plasma
  TIMS collisional cross section: 245 Å²

## CCCCCCCCCCCCCCCC(=O)OC[C@@H](O)COP(=O)([O-])OCC[N+](C)(C)C [LPC 16:0_0:0] (ion (formula + adduct): [C24H50NO7P+H] 1+)
Sample type: HeLa
  TIMS collisional cross section: 230.8 Å²
Sample type: Liver
  TIMS collisional cross section: 230.6 Å²
Sample type: plasma
  TIMS collisional cross section: 229.87 ± 0.98 Å²

## CC/C=C\C/C=C\C/C=C\C/C=C\C/C=C\C/C=C\CCC(=O)OC[C@@H](COC(=O)CCCCCCC/C=C\CCCCCCCC)OC(=O)CCC/C=C\C/C=C\C/C=C\C/C=C\CCCCC [TG 18:1_20:4_22:6] (ion (formula + adduct): [C63H100O6+NH4] 1+)
Sample type: plasma
  TIMS collisional cross section: 332.5 Å²

## CCCCCC/C=C\CCCCCCCC(=O)O[C@H](COC(=O)CCCCCCCCCCCCCCC)COP(=O)([O-])OCC[N+](C)(C)C [PC 16:0_16:1] (ion (formula + adduct): [C40H78NO8P+H] 1+)
Sample type: HeLa
  TIMS collisional cross section: 282.63 ± 1.3 Å²
Sample type: Liver
  TIMS collisional cross section: 282.3 Å²
Sample type: plasma
  TIMS collisional cross section: 282.3 Å²

## CCCCC/C=C\C/C=C\CCCCCCCC(=O)O[C@H](COC(=O)CCCCCCC/C=C\CCCCCC)COP(=O)([O-])OCC[N+](C)(C)C [PC 16:1_18:2@] (ion (formula + adduct): [C42H78NO8P+H] 1+)
Sample type: HeLa
  TIMS collisional cross section: 281 Å²

## CCCCCCCCCCCCCCCCCCCCCC(=O)OC[C@@H](COC(=O)CCCCCCCCCCCCCCC)OC(=O)CCCCCCCCCCCCCCCCCC [TG 16:0_19:0_22:0] (ion (formula + adduct): [C60H116O6+NH4] 1+)
Sample type: HeLa
  TIMS collisional cross section: 341.2 Å²
Sample type: Liver
  TIMS collisional cross section: 340.8 Å²
Sample type: plasma
  TIMS collisional cross section: 340.7 Å²

## CCCCC/C=C\CCCCCCCC(=O)OC[C@@H](COC(=O)CCCCCCCCCCC)OC(=O)CCCCCCCCCCCCC [TG 12:0_14:0_15:1] (ion (formula + adduct): [C44H82O6+NH4] 1+)
Sample type: HeLa
  TIMS collisional cross section: 289.5 Å²

## CC/C=C\C/C=C\C/C=C\C/C=C\C/C=C\C/C=C\CCC(=O)O[C@H](COC(=O)CCCCCCC/C=C\CCCCCC)COP(=O)([O-])OCC[N+](C)(C)C [PC 16:1_22:6@] (ion (formula + adduct): [C46H78NO8P+H] 1+)
Sample type: HeLa
  TIMS collisional cross section: 288.4 Å²
Sample type: Liver
  TIMS collisional cross section: 289 Å²

## CC/C=C\C/C=C\C/C=C\C/C=C\C/C=C\CCCCCC(=O)O[C@H](COCCCCCCCCCCCCCCCC)COP(=O)([O-])OCC[N+](C)(C)C [PC O- 16:0@_22:5] (ion (formula + adduct): [C46H84NO7P+H] 1+)
Sample type: HeLa
  TIMS collisional cross section: 294.4 Å²

## CC/C=C\C/C=C\C/C=C\C/C=C\C/C=C\C/C=C\CCC(=O)OC[C@@H](COC(=O)CCCCCCCCCCCCCCC)OC(=O)CCCCCCCCCCCCCCC [TG 16:0_16:0_22:6] (ion (formula + adduct): [C57H98O6+NH4] 1+)
Sample type: HeLa
  TIMS collisional cross section: 324 Å²

## CCCCCCCC/C=C\CCCCCCCCCCCC(=O)OC[C@@H](COC(=O)CCCCCCCCCCCCCCCCC)OC(=O)CCCCCCCCCCC/C=C\CCCCCCCC [TG 18:0_22:1_22:1] (ion (formula + adduct): [C65H122O6+NH4] 1+)
Sample type: HeLa
  TIMS collisional cross section: 350.2 Å²

## CCC/C=C\C/C=C\CCCCCCCCCC(=O)O[C@H](COC(=O)CCCCCCCCCCCCC)COP(=O)([O-])OCC[N+](C)(C)C [PC 14:0_18:2] (ion (formula + adduct): [C40H76NO8P+H] 1+)
Sample type: HeLa
  TIMS collisional cross section: 279.2 Å²
Sample type: plasma
  TIMS collisional cross section: 278.7 Å²
